# Laboratory results from patent US20040266718A1, “Inhibition of specific histone deacetylase isoforms” (priority 2001, published 2004).
# Tests used:
# Format in all cases: cell-based, human
# A549 = experiment: apoptosis, Cell Death Detection ELISA, A549; details: 100 ng/ml
# Experimental: (§1) In order to determine the effect of HDAC OSDNs on cell growth and cell death through apoptosis, A549 or T24 cells, MDAmb231 cells, and HMEC cells (ATCC, Manassas, Va.) were treated with HDAC OSDNs as previously described.
# (§2) For the apoptosis study, cells were analyzed using the Cell Death Detection ELISA^Plus kit (Roche Diagnostic GmBH, Mannheim, Germany) according to the manufacturer's directions. Typically, 10,000 cells were plated in 96-well tissue culture dishes for 2 hours before harvest and lysis. Each sample was analyzed in duplicate. ELISA reading was done using a MR700 plate reader (DYNEX Technology, Ashford, Middlesex, England) at 410 nm. The reference was set at 490 nm.
# [1] = tested on: Bax mRNA expression in A549 cells; experiment: RNase protection assay, Bax in A549; details: TSA vs lipofectin, 250 ng/ml, 16 hours
# Experimental: (§3) As a control, A549 cells were treated by lipofectin with or without TSA (250 ng/ml) treatment for 16 hours. These RNase protection assays were done according to the following procedure. Total RNA from cells was prepared using “RNeasy miniprep kit” from QIAGEN following the manufacturer's manual. Labeled probes used in the protection assays were synthesized using “hStress-1 multiple-probe template sets” from Pharmingen (San Diego, Calif., U.S.A.) according to the manufacturer's instructions. Protection procedures were performed using “RPA II™ Ribonuclease Protection Assay Kit” from Ambion, (Austin, Tex.) following the manufacturer's instructions. Quantitation of the bands from autoradiograms was done by using Cyclone™ Phosphor System (Packard Instruments Co. Inc., Meriden, Conn.).
# [2] = tested on: GADD45 mRNA expression in A549 cells; experiment: RNase protection assay, GADD45 in A549; details: TSA vs lipofectin, 250 ng/ml, 16 hours
# Experimental: as §3
# HMEC = experiment: apoptosis, Cell Death Detection ELISA, HMEC; details: 100 ng/ml, normal cells
# Experimental: as §1, §2
# [3] = tested on: p21 mRNA expression in A549 cells; experiment: RNase protection assay, p21 in A549; details: TSA vs lipofectin, 250 ng/ml, 16 hours
# Experimental: as §3
# MDAmb231 = experiment: apoptosis, Cell Death Detection ELISA, MDAmb231; details: 100 ng/ml
# Experimental: as §1, §2
# T24 = experiment: apoptosis, Cell Death Detection ELISA, T24; details: 100 ng/ml
# Experimental: as §1, §2
smiles,measurement,setting,value
"CC(/C=C/C(=O)NO)=C\[C@@H](C)C(=O)c1ccc(N(C)C)cc1 [TSA, (R)-Trichostatin A, reference compound]",Apoptosis After 48 Hour Treatment A549,A549,++ (3-5X fold)
same,"fold induction of transcription, Bax, A549",[1],0.8 fold
same,"fold induction of transcription, GADD45, A549",[2],0.6 fold
same,Apoptosis After 48 Hour Treatment HMEC,HMEC,+ (2-3X fold)
same,"fold induction of transcription, p21, A549",[3],2.8 fold
same,Apoptosis After 48 Hour Treatment MDAmb231,MDAmb231,++ (3-5X fold)
same,Apoptosis After 48 Hour Treatment T24,T24,++ (3-5X fold)
